Patent US20210102200A1, “SMALL MOLECULE TARGETED RECRUITMENT OF A NUCLEASE TO RNA” (The Scripps Research Institute, priority 2018, published 2021)

Biological target: T1, RNase L (Homo sapiens, UniProt Q05823)
T1 construct: GST; made in house
T1 sequence (Q05823 1-741): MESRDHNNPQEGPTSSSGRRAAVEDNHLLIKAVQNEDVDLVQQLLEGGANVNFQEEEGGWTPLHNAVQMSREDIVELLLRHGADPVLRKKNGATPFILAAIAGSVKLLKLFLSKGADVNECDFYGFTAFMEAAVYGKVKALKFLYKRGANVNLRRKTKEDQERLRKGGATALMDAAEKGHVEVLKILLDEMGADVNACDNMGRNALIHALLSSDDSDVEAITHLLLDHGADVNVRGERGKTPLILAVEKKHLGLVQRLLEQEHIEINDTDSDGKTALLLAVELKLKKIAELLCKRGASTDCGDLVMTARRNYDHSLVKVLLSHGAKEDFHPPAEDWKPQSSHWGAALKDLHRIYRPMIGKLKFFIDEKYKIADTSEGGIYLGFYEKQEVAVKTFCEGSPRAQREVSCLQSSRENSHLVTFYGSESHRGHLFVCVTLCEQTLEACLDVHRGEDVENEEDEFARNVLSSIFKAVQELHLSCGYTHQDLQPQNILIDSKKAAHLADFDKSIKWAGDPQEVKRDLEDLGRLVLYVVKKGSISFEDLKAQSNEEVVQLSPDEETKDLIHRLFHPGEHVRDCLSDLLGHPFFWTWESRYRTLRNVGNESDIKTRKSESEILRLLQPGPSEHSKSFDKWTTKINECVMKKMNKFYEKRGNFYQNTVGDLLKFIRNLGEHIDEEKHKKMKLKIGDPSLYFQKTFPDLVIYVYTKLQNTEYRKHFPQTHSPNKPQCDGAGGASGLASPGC
Assay: In vitro RNase L oligomerization, TGP-210-RL study
Type: biochemical
Conditions: in vitro cross-linking
Experimental: An aliquot of RNase L (3 μM) in 1×RNase L Buffer was supplemented with 10 mM MgCl2, fresh 7 mM β-mercaptoethanol, and 50 μM of ATP. Dilutions of 2′-5′ A4, TGP-210, or TGP-210-RL were prepared in 1×RNase L Buffer supplemented with 10 mM MgCl2, fresh 7 mM β-mercaptoethanol, and 50 μM of ATP and added to the solution of RNase L in a total volume of 17.4 μL. The RNase L/compound solutions were incubated at room temperature for 5 min and then 1 μL of 44 mM dimethyl suberimidate (Thomas Scientific) in 0.4 M triethanolamine hydrochloride, pH 8.5, was added. After incubating at room temperature for 2 h, 3.6 μL of 6×Laemmli buffer (375 mM Tris-HCl, pH 6.8, 0.03% bromophenol blue, 0.6% β-mercaptoethanol, 12% SDS, 60% glycerol) was added. After heat denaturing the samples at 95° C. for 5 min, the samples were diluted 1:90 in 1×Laemmli buffer and then resolved by SDS-PAGE. After transferring to a PVDF membrane, the membrane was blocked in 1×TBST [1×TBS with 0.1% Tween-20 (v/v)] containing 5% nonfat milk for 1 h. […] After washing the membrane five times for 5 min each with 1×TBST, protein levels were quantified by chemiluminescence with SuperSignal West Pico Chemiluminescent Substrate (Pierce Biotechnology) per the manufacturer's protocol. RNase L bands associated with monomeric or oligomeric signals were quantified using ImageJ software (National Institutes of Health).

In the case of Targapremir-210 [TGP-210], the “Oligomerization of RNase L” value is reported as “not”.
